Laboratory results from US20030215788A1, “Cysteine thiol-protected peptides for use in immunoassays” (priority 1989, published 2003).
Non-standard residues stand in square brackets, D forms with d. No end group written: not given here. Cys∗ = not defined here

Experiments:
Type in all cases: binding, human
[1] = test system: antibodies to HTLV-I and/or HTLV-II; assay: membrane concentration immunoassay with peptide 121-1GC1 on suspected HTLV-I/II sera; conditions: for Reactivity with deprotected peptide (color grade): 80 μg peptide/5 mg bead/550 μl
Method: Serum or plasma samples (40 μl) were diluted 1:10 in dilution buffer (10% heat inactivated normal goat serum, 1% dextran sulfate, 0.2% Tween 20, 2.5% nonfat dry milk, 15 ppm Kathon CG, 0.005% antifoam A, in 20 mM sodium citrate buffer, pH 7.4). Diluted specimen was added to the surface of the membrane and allowed to absorb completely. After waiting 2 min. from the time of specimen addition, 1 ml of wash buffer (0.01M Tris-buffered saline, pH 6.0, 0.05M NaCl, 0.005M MgCl2, 0.1% sodium azide, 10 μg/ml nitro blue tetrazolium, 0.5M potassium thiocyanate) was added and allowed to completely absorb through the membrane. About 0.150 ml (3 drops) of goat anti-human Ig-alkaline phosphatase conjugate diluted in 10 mM phosphate buffered saline, pH 7.4, 0.2% goat gamma globulin, 1% bovine serum albumin, 1 mM MgCl2, 0.1 mM ZnCl2 was added to the membrane and allowed to absorb completely. The membrane was washed twice as above (2 ml) and about 0.150 ml (3 drops) of substrate (1M 2-amino-2-methyl-1-propanol, pH 10.3, 5 mg/ml 3-indoxyl phosphate) was added and allowed to absorb completely. After about 5 min. about 1 ml of 0.5M EDTA, pH 7.4, was passed through the membrane to stop the reaction. After the stop solution was completely absorbed the units were read visually or semi-quantitatively by reflectance.
A wide variety of positive, negative, EIA positive/western blot a typical and immune sensitized specimens have been tested with the preferred peptide 39 analog, peptide 39-GC, as the test antigen.
Results of assays with peptide 121-1GC1 were compared to those obtained with other HTLV-I/II tests, such as the polymerase chain reaction (PCR), radioimmunoprecipitation (RIP), Western blot (WB), and viral lysate EIAS. The procedure as described in Example II was used for peptide 121-1GC1, except that two drops of samples were used and the conjugate was used at a two-fold higher concentration. The assays were performed with 10 serum samples suspected of containing antibodies to HTLV-I and/or HTLV-II. The PCR assay for HTLV-II was performed generally according to PCR Technology, Principles and Applications for DNA Amplification, ed. H. A. Ehrlich, Stockton Press, N.Y. (1989), incorporated herein by reference.
In other experiments, screening of the HTLV-I peptide in a variety of forms against a serum panel of suspected HTLV-I/II positive individuals yielded inconclusive results when compared to results obtained by RIP, Western blot, and commercially available HTLV-I EIA assays.

Antibodies to HTLV-I = assay: HTLV-I peptides on latex microparticles tested for reactivity with control sera; conditions: Serum Sample 40359, HTLV-I EIA positive control, undiluted; 50 μg peptide/5 mg beads/550 μl
Antibodies to HIV-2 = assay: EIA of dilutional series of HIV-2 positive sera
Method: Alternative methods of testing immunologic cross-reactivity were also used. In one such method L5 Peptides 39 and 39GC were tested by ELISA as previously described in U.S. Pat. No. 4,629,783. Briefly, stock solutions of peptides 39 and 39-GC were prepared in 6M Gu-HCl. Working dilutions of 20 µg/ml and 6 μg/ml respectively were prepared by dilution of stock solution 0 with 0.05M carbonate/bicarbonate buffer, pH 9.5. Wells of microtiter plates were filled with 100 μl of the working dilution of the peptides and allowed to stand overnight at room temperature. Coating solution was removed and 300 μl of blocking solution supra containing 0.5M ethanolamine was added for 1 hr. at room temperature. Blocking solution was removed and the plates were used immediately or allowed to dry and stored for later use.
Plasma samples were diluted (See Table 1) in sample dilution buffer (above) and 100 μl was added to individual wells. Samples were incubated for 30 min. at 37° C., then removed and the wells were washed six times with 0.15M NaCl, 0.05% Tween 20. One hundred microliters of goat antihuman Ig-horseradish peroxidase conjugate diluted in citrate buffer, pH 7.0, 1% normal goat serum was added to each well for 30 min at 37° C. prior to washing six times as above. The ELISA assay was developed by adding 100 μl/well of substrate solution (80 μg/ml tetramethyl benzidine, 0.0015% hydrogen peroxide in citrate/phosphate buffer, pH 6.0) for 30 min. at room temperature. Reactions were stopped with the addition of 100 μl of H2SO4 per well, and the ratio of the optical density at 450 nm to 630 nm was determined by an automated ELISA reader. The cutoff value for a positive result was set at 0.225 Absorbance Units above the average absorbance obtained for three known negative samples.
The immunoreactivity of HIV-2 peptides synthesized with protected cysteine thiol groups was determined. […] EIAs were performed as described above using viral lysates of HIV-1 and HIV-2 and peptides 39GC (HIV-1) and 41-2-3GC. Reactivity was determined for dilutions of two HIV-2 positive sera, F504282, obtained from a patient in New York, and “GOM,” provided by the Institut Pasteur.
The assays were EIAs performed generally as described above with varying dilutions of HIV-2 positive serum specimens.

With “H-CGG-QNRRGLDLLFWEQGGLC*KALQEQC*-NH2 (chain 1 H-CGGQNRRGLDLLFWEQGGLC; chain 2 KALQEQC-NH2; not fully specified; cysteine pairing not given here) [Peptide 121-1GC1]” the “Reactivity with deprotected peptide (color grade)” value ([1]; Sample No. 39266) was “trace”, the “Reactivity with deprotected peptide (color grade)” value ([1]; Sample No. 89232) was “trace” and the “Reactivity with deprotected peptide (color grade)” value ([1]; Sample No. 89379) was “trace”. The “Reactivity with deprotected peptide (color grade)” value ([1]; Sample No. 89430) was “trace”, the “Reactivity with deprotected peptide (color grade)” value ([1]; Sample No. 89442) was “trace” and the “result on serum panel of suspected HTLV-I/II positive individuals” value ([1]; compared with RIP, Western blot and commercial HTLV-I EIA) was “Some samples which were purportedly positive by certain of the tests were negative”.
For “H-QNRRGLDLLFWEQGGLC*KALQEQC*-NH2 (chain 1 H-QNRRGLDLLFWEQGGL[Cys∗]; chain 2 KALQEQ[Cys∗]-NH2; not fully specified; reading uncertain; also: modified residues) [Peptide 121-1G1]”, the “Reactivity to Antibodies to HTLV-I (color grade)” value (Antibodies to HTLV-I) was “trace”.
For “Cys-Gly-Gly-Gln-Asp-Gln-Ala-Arg-Leu-Asn-Ser-Trp-Gly-Cys*-Ala-Phe-Arg-Gln-Val-Cys*-NH2 [Peptide 41-2-3GC]”, the “Reactivity in EIA” value (Antibodies to HIV-2; HIV-2 positive serum F504282 (A), 1:5) was 3.000, the “Reactivity in EIA” value (Antibodies to HIV-2; HIV-2 positive serum F504282 (A), 1:10) was 3.000 and the “Reactivity in EIA” value (Antibodies to HIV-2; HIV-2 positive serum F504282 (A), 1:20) was 3.000. The “Reactivity in EIA” value (Antibodies to HIV-2; HIV-2 positive serum F504282 (A), 1:40) was 2.828, the “Reactivity in EIA” value (Antibodies to HIV-2; HIV-2 positive serum F504282 (A), 1:80) was 2.107 and the “Reactivity in EIA” value (Antibodies to HIV-2; HIV-2 positive serum F504282 (A), 1:160) was 1.441. The “Reactivity in EIA” value (Antibodies to HIV-2; HIV-2 positive serum F504282 (A), 1:320) was 0.941, the “Reactivity in EIA” value (Antibodies to HIV-2; HIV-2 positive serum F504282 (A), 1:640) was 0.588 and the “Reactivity in EIA” value (Antibodies to HIV-2; HIV-2 positive serum F504282 (A), 1:1280) was 0.302. For the same substance, the “Reactivity in EIA” value (Antibodies to HIV-2; HIV-2 positive serum F504282 (A), 1:2560) was 0.180, the “Reactivity in EIA” value (Antibodies to HIV-2; HIV-2 positive serum F504282 (A), Neat) was 3.000 and the “Reactivity in EIA” value (Antibodies to HIV-2; HIV-2 positive serum GOM (B), 1:2) was 3.000. The “Reactivity in EIA” value (Antibodies to HIV-2; HIV-2 positive serum GOM (B), 1:4) was 3.000, the “Reactivity in EIA” value (Antibodies to HIV-2; HIV-2 positive serum GOM (B), 1:8) was 3.000 and the “Reactivity in EIA” value (Antibodies to HIV-2; HIV-2 positive serum GOM (B), 1:16) was 3.000. The “Reactivity in EIA” value (Antibodies to HIV-2; HIV-2 positive serum GOM (B), 1:32) was 3.000, the “Reactivity in EIA” value (Antibodies to HIV-2; HIV-2 positive serum GOM (B), 1:64) was 2.524 and the “Reactivity in EIA” value (Antibodies to HIV-2; HIV-2 positive serum GOM (B), 1:128) was 2.202. The “Reactivity in EIA” value (Antibodies to HIV-2; HIV-2 positive serum GOM (B), 1:256) was 1.452, the “Reactivity in EIA” value (Antibodies to HIV-2; HIV-2 positive serum GOM (B), 1:512) was 0.811 and the “Reactivity in EIA” value (Antibodies to HIV-2; HIV-2 positive serum GOM (B), 1:1024) was 0.571. For the same substance, the “Reactivity in EIA” value (Antibodies to HIV-2; HIV-2 serum PIN, 1:2) was 3.000, the “Reactivity in EIA” value (Antibodies to HIV-2; HIV-2 serum PIN, 1:4) was 3.000 and the “Reactivity in EIA” value (Antibodies to HIV-2; HIV-2 serum PIN, 1:8) was 2.596. The “Reactivity in EIA” value (Antibodies to HIV-2; HIV-2 serum PIN, 1:16) was 1.940, the “Reactivity in EIA” value (Antibodies to HIV-2; HIV-2 serum PIN, 1:32) was 1.209 and the “Reactivity in EIA” value (Antibodies to HIV-2; HIV-2 serum PIN, 1:64) was 0.582. The “Reactivity in EIA” value (Antibodies to HIV-2; HIV-2 serum PIN, 1:128) was 0.368, the “Reactivity in EIA” value (Antibodies to HIV-2; HIV-2 serum PIN, 1:256) was 0.186 and the “Reactivity in EIA” value (Antibodies to HIV-2; HIV-2 serum S, 1:2) was 3.000. For the same substance, the “Reactivity in EIA” value (Antibodies to HIV-2; HIV-2 serum S, 1:4) was 3.000, the “Reactivity in EIA” value (Antibodies to HIV-2; HIV-2 serum S, 1:8) was 3.000 and the “Reactivity in EIA” value (Antibodies to HIV-2; HIV-2 serum S, 1:16) was 3.000. For the same substance, the “Reactivity in EIA” value (Antibodies to HIV-2; HIV-2 serum S, 1:32) was 2.632, the “Reactivity in EIA” value (Antibodies to HIV-2; HIV-2 serum S, 1:64) was 2.155 and the “Reactivity in EIA” value (Antibodies to HIV-2; HIV-2 serum S, 1:128) was 1.442. The “Reactivity in EIA” value (Antibodies to HIV-2; HIV-2 serum S, 1:256) was 0.725, the “Reactivity in EIA” value (Antibodies to HIV-2; HIV-2 serum S, 1:512) was 0.516 and the “Reactivity in EIA” value (Antibodies to HIV-2; HIV-2 serum SAMB, 1:2) was 3.000. The “Reactivity in EIA” value (Antibodies to HIV-2; HIV-2 serum SAMB, 1:4) was 3.000, the “Reactivity in EIA” value (Antibodies to HIV-2; HIV-2 serum SAMB, 1:8) was 2.854 and the “Reactivity in EIA” value (Antibodies to HIV-2; HIV-2 serum SAMB, 1:16) was 2.710. For the same substance, the “Reactivity in EIA” value (Antibodies to HIV-2; HIV-2 serum SAMB, 1:32) was 2.112, the “Reactivity in EIA” value (Antibodies to HIV-2; HIV-2 serum SAMB, 1:64) was 1.400 and the “Reactivity in EIA” value (Antibodies to HIV-2; HIV-2 serum SAMB, 1:128) was 0.834. The “Reactivity in EIA” value (Antibodies to HIV-2; HIV-2 serum SAMB, 1:256) was 0.404.
